The results in this text go back to ChEMBL document CHEMBL5247626, “In vitro and in vivo biological evaluation of newly synthesized multi-target 20(R)-panaxadiol derivatives for treating Alzheimer's disease” (Eur J Med Chem, 2022).

This test has as its system PC-12. Nature of the test: Neuroprotective activity against rat PC12 cells assessed as reduction in amyloid beta (25 to 35)-induced cytotoxicity at 15 uM incubated for 4 hrs followed by amyloid beta (25 to 35) treatment for 24 hrs by MTT assay relative to control. The test is classed as functional. Further details: scale not given: the % may be the effect or the level left. The following applies: time 28 hrs. (In general: Formazan colour is commonly taken as a measure of viable cells.)
Regarding `CC1(C)CCC[C@](C)([C@H]2CC[C@]3(C)[C@@H]2[C@H](O)C[C@@H]2[C@@]4(C)CC[C@H](OC(=O)/C=C/c5ccccc5)C(C)(C)[C@@H]4CC[C@]23C)O1`, the Activity is 22.78%.
The value for `COC(=O)[C@@H](Cc1ccccc1)NC(=O)CCC(=O)O[C@H]1CC[C@]2(C)[C@H]3C[C@@H](O)[C@@H]4[C@@H]([C@@]5(C)CCCC(C)(C)O5)CC[C@@]4(C)[C@]3(C)CC[C@H]2C1(C)C` was 33.77%; that for `CC1(C)CCC[C@](C)([C@H]2CC[C@]3(C)[C@@H]2[C@H](O)C[C@@H]2[C@@]4(C)CC[C@H](OP(=O)(Oc5ccc(F)cc5)Oc5ccc(F)cc5)C(C)(C)[C@@H]4CC[C@]23C)O1` was 48.68%.
The value for `CC1(C)CCC[C@](C)([C@H]2CC[C@]3(C)[C@@H]2[C@H](O)C[C@@H]2[C@@]4(C)CC[C@H](OC(=O)c5cn(-c6ccc(F)cc6)nn5)C(C)(C)[C@@H]4CC[C@]23C)O1` was 33.68%; that for `C=CCNC(=O)O[C@H]1CC[C@]2(C)[C@H]3C[C@@H](O)[C@@H]4[C@@H]([C@@]5(C)CCCC(C)(C)O5)CC[C@@]4(C)[C@]3(C)CC[C@H]2C1(C)C` was 70.06%; that for `COc1ccc(OP(=O)(Oc2ccc(OC)cc2)O[C@H]2CC[C@]3(C)[C@H]4C[C@@H](O)[C@@H]5[C@@H]([C@@]6(C)CCCC(C)(C)O6)CC[C@@]5(C)[C@]4(C)CC[C@H]3C2(C)C)cc1` was 57.15%.
The value for `CC1(C)CCC[C@](C)([C@H]2CC[C@]3(C)[C@@H]2[C@H](O)C[C@@H]2[C@@]4(C)CC[C@H](OC(=O)Nc5cccc(F)c5)C(C)(C)[C@@H]4CC[C@]23C)O1` was 65.25%; that for `CC1(C)CCC[C@](C)([C@H]2CC[C@]3(C)[C@@H]2[C@H](O)C[C@@H]2[C@@]4(C)CC[C@H](OC(=O)Nc5ccc(F)cc5)C(C)(C)[C@@H]4CC[C@]23C)O1` was 67.4%.
Consider `CC(C)NC(=O)O[C@H]1CC[C@]2(C)[C@H]3C[C@@H](O)[C@@H]4[C@@H]([C@@]5(C)CCCC(C)(C)O5)CC[C@@]4(C)[C@]3(C)CC[C@H]2C1(C)C`, for which the Activity worked out at 69.45%.
Then `CC1(C)CCC[C@](C)([C@H]2CC[C@]3(C)[C@@H]2[C@H](O)C[C@@H]2[C@@]4(C)CC[C@H](OC(=O)Nc5ccc(Cl)cc5)C(C)(C)[C@@H]4CC[C@]23C)O1`, with 64.16%; and `Cc1ccc(NC(=O)O[C@H]2CC[C@]3(C)[C@H]4C[C@@H](O)[C@@H]5[C@@H]([C@@]6(C)CCCC(C)(C)O6)CC[C@@]5(C)[C@]4(C)CC[C@H]3C2(C)C)cc1`, with 64.13%.
Then `COC(=O)[C@H](NC(=O)CCC(=O)O[C@H]1CC[C@]2(C)[C@H]3C[C@@H](O)[C@@H]4[C@@H]([C@@]5(C)CCCC(C)(C)O5)CC[C@@]4(C)[C@]3(C)CC[C@H]2C1(C)C)C(C)C`, with 25.34%; and `COc1cc(/C=C/C(=O)O[C@H]2CC[C@]3(C)[C@H]4C[C@@H](O)[C@@H]5[C@@H]([C@@]6(C)CCCC(C)(C)O6)CC[C@@]5(C)[C@]4(C)CC[C@H]3C2(C)C)ccc1O`, with 55.55%.
Then `CCCNC(=O)O[C@H]1CC[C@]2(C)[C@H]3C[C@@H](O)[C@@H]4[C@@H]([C@@]5(C)CCCC(C)(C)O5)CC[C@@]4(C)[C@]3(C)CC[C@H]2C1(C)C`, with 65.9%; and `CCCCCCNC(=O)O[C@H]1CC[C@]2(C)[C@H]3C[C@@H](O)[C@@H]4[C@@H]([C@@]5(C)CCCC(C)(C)O5)CC[C@@]4(C)[C@]3(C)CC[C@H]2C1(C)C`, with 50.09%.
On to `CCCCCCCNC(=O)O[C@H]1CC[C@]2(C)[C@H]3C[C@@H](O)[C@@H]4[C@@H]([C@@]5(C)CCCC(C)(C)O5)CC[C@@]4(C)[C@]3(C)CC[C@H]2C1(C)C`, for which the Activity was 59.9%.
